Data: US20240009116A1, “DRUG DELIVERY SYSTEM COMPRISING A NON-STEROIDAL ANTI-INFLAMMATORY (NSAID) AND A PROGESTOGENIC COMPOUND AND METHODS FOR MANUFACTURING” (Bayer OY, priority 2015, published 2024)

Assay: Polymorph form during filament preparation and printing (i.a. X-ray diffraction)
Type: physicochemical
Excerpt: As drug indomethacin was used. Indomethacin can appear in different polymorphic forms, which are differently bioavailable. In the current examples the stable form y-indomethacin was used. […] Other NSAID's such as meloxicam, piroxicam, naproxen, celecoxib, diclofenac, tenoxicam, nimesulide, lornoxicam and indomethacin are likewise suitable, of which indomethacin is particularly preferred.

**Q.** For COc1ccc2c(c1)c(CC(=O)O)c(C)n2C(=O)c1ccc(Cl)cc1 [y-indomethacin, indomethacin], which polymorph form stability is on record?
**A.** the polymorph form does not change during filament preparation and printing
